The values below come from US8759311B2, “Use of siRNA targetting SIPA1L1 for the reduction of adipogenesis” (Sanofi, priority 2009, dated 2014).

The subject of series [1] is C57BL/6J mice. Put plainly: high fat diet fed C57BL/6J mice treated with Rimonabant. It counts as in vivo, mouse. Conditions: HFD mice, 10 mg.kg−1.day−1 for one month. From the text: C57BL/6J mice, which are obesity-prone (Collins S. et al., 2004) were fed for 6 months with a high fat diet (HFD).
Series [2] relates to Sipa1l1. Put plainly: retroviral shRNA transduction of 3T3-L1 cells, Sipa1l1 mRNA by RT-PCR. It counts as cell-based, mouse. Conditions: day 0 prior differentiation. As for the experimental part:
3T3-L1 cells were cultured in DMEM (Gibco) with 10% FBS (Gibco) at 5% CO2. After retroviral infection (see below), cells were allow to grow to confluence in either 100-mm or 60-mm dishes in DMEM with 10% FBS. Once confluence was reached, cells were exposed to differentiation medium containing dexamethasone (1 μM), insulin (5 μg/ml), and isobutylmethylxanthine ([…]) (DMI). After 2 days cells were maintained in medium containing insulin (5 μg/ml) until ready for harvest at 7 days.
Retroviruses were constructed in the RNAi-Ready pSIREN-RetroQ ZsGreen (pSIREN Clontech) or pMSCV puromycin plasmid (pMSCV, Clontech). Viral constructs were transfected using calcium-phosphate method described in Jordan M. et al (2004) into 293 HEK packaging cells along with constructs encoding gag-pol and the VSV-G protein. Supernatants were harvested after 48 h in presence of 3 μm of Trichostatin A (Sigma) and either used immediately or snap frozen and stored at −80° C. for later use. Viral supernatants were added to the cells for 6 hours in the presence of polybrene (4 μg/ml) and diluted two times with fresh medium for the next 15 hours.
Total RNA was isolated from cultured cells using peqGOLD TriFast reagent according to the manufacturer's instructions (Axonlab). First strand cDNA was synthesized from 0.5 μg of total RNA using random primers and Superscript II (Invitrogen). […]

Turning to `Cc1c(C(=O)NN2CCCCC2)nn(-c2ccc(Cl)cc2Cl)c1-c1ccc(Cl)cc1` [Rimonabant], in series [1], the body weight result is “normalize” and the glucose tolerance result was “normalized”.

B1: shLuc: control shRNA against the firefly luciferase protein (SEQ ID NO. 7) (nucleic acid)
chain: GATCCGTGCGTTGCTAGTACCAATTCAAGAGATTGGTACTAGCAACGCACTTTTTTACGCGTG
modifications: the letters are possibly those of the target site
Regarding B1, the “knockdown of Sipa1l1 mRNA” value in series [2] is “no inhibition”.
